Where a SMILES comes first, the peptide text is derived from it. Bridges are numbered along the chain shown (N, C = ends). [ ]: non-standard residue; d: D form. The star is where a group is joined. 5FAM = O=C1OC2(c3ccc(O)cc3Oc3cc(O)ccc32)c2ccc(C(=O)*)cc21; S5 = C=CCCC[C@](C)(N)C(=O)O; βAla = NCCC(=O)O
How the values were obtained:
[1] = molecular target: T1, GST-E6 (GST-tagged HPV16 E6 protein) (Human papillomavirus type 16, UniProt P03126); assay: Noncompetitive fluorescence polarization (FP) binding assay; parameters: species or system Human Papillomavirus (HPV-16)
T1 construct: host or cells: E. coli BL21
Method: An N-terminal carboxyfluorescein was included for FP analysis of binding affinity for both the natural backbone and the stapled peptides.
For noncompetitive FP experiments, varying concentrations of GST-E6 protein (38 μM; 10 point 2-fold serial dilution) were incubated with 30 nM fluorescently labeled peptides in buffer (10 μL total volume; 50 mM Tris, 200 mM NaCl, 1 mM DTT, 0.1% [v/v] Trition X-100) in black 384-well plates. For competitive FP experiments, 100 nM GST-E6 was incubated with 30 nM fluorescently labeled noncovalent peptide and varying concentrations (20 μM; 3-fold serial dilution) of covalent peptide in buffer (20 μL) with a final DMSO content of 0.5% [v/v]. Negative control (polarization reference; 30 nM fluorescent peptide, no protein) and blank reference (buffer alone) were included in triplicate for G-factor calibration. Sample plates were centrifuged (1 min, 500g) and incubated for 30 min at RT. Following incubation, FP at equilibrium was measured on a Tecan M1000 microplate reader (ex = 470 nm, em = 525; gain optimized, 200 flashes, 300 ms settle time, G-factor reference value 30 mP). Measured polarizations were fitted to a sigmoidal dose–response curve using GraphPad Prism software to generate KD values.

in vitro = conditions: bovine α-chymotrypsin (50 nM), pH 7.5
Method: (§1) Chymotrypsin was chosen due to its substrate selectivity for peptides containing hydrophobic side chains, including leucine, making the LxxLL motif a well-suited substrate for proteolytic cleavage by this protease.[54]
(§2) For each time point, a 50 μL aliquot was removed from the reaction mixture and quenched with 40 μL of 0.5% [v/v] trifluoroacetic acid in acetonitrile. Quenched samples were subsequently analyzed by analytical reverse-phase HPLC, and the remaining undigested peptide was quantified by integration of AUC. A plot of percent peptide remaining vs time was fit to a one-phase exponential decay to calculate half-life using GraphPad Prism software.

bovine α-chymotrypsin = bovine α-chymotrypsin (Bos taurus, UniProt P00766); assay: in vitro; conditions: 50 μM peptide, 50 nM bovine α-chymotrypsin, pH 7.5, room temp, 4 h; HPLC
Method: as §1, §2

[2] = Circular dichroism spectroscopy, percent helicity; type: physicochemical; conditions: 50 μM peptide, 10 mM phosphate buffer pH 7.2, 0.5% DMSO, 20 °C
Method: To determine the secondary structure of peptides 1–11, CD was measured in an aqueous solution. […] The molar ellipticity ([θ]) at 222 nm was used to estimate the percent helicity of peptides in aqueous solutions and enable direct comparison of the helical content of peptides 1–11 (Figure 5C).[51],[52]
CD measurements were acquired on an Olis DSM17 CD spectrophotometer. Cells with a path length of 2 mm were used. Peptide solutions at 50 μM were prepared in 10 mM phosphate buffer (500 μL; pH = 7.2) containing 0.5% of DMSO, and exact concentrations were determined using fluorescein absorbance at 494 nm and a molar extinction coefficient of 82,000 cm^–1 M^–1.[59] Blank solutions of buffer without peptide were prepared for background subtraction. Scans were performed at 20 °C from 200 to 260 nm with increments of 1 nm, bandwidth of 2 nm, and a 5 s integration time. […] Helical content for peptides was calculated using a previously described method[52] that assumes that the peptide population only exists in two states, helical and random coil, and that the ellipticity contribution from the random coil population is negligible at 222 nm. […] This was calculated via the equation [θobs]222 = 43,000(1 – [x/n]), where x is the factor accounting for end effects, for which 2.5 was used, and n is the number of residues.[52]

T1 sequence (P03126 whole entry): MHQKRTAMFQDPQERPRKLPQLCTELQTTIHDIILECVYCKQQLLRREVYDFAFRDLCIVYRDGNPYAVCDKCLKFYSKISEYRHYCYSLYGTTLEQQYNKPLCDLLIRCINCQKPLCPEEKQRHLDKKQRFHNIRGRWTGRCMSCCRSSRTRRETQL

| SMILES | EC50 [1] | Kd [1] | half-life at 50 μM (in vitro) | degradation by chymotrypsin within 4 h (bovine α-chymotrypsin) | Percent helicity from molar ellipticity at 222 nm (CD) [2] |
| --- | --- | --- | --- | --- | --- |
| CC(C)C[C@H](NC(=O)[C@H](CC(C)C)NC(=O)[C@H](CCC(=O)O)NC(=O)[C@H](CCC(N)=O)NC(=O)[C@H](CC(C)C)NC(=O)[C@@H](NC(=O)[C@H](CC(C)C)NC(=O)[C@H](CCC(=O)O)NC(=O)[C@H](C)NC(=O)[C@H](C)NC(=O)[C@H](C)NC(=O)CCNC(=O)c1ccc2c(c1)C(=O)OC21c2ccc(O)cc2Oc2cc(O)ccc21)[C@@H](C)O)C(=O)NCC(N)=O [compound 1] ({5FAM-βAla}-AAAELTLQELLG-NH2) | 2590 nM | 2590 nM | 47 min | complete degradation |  |
| CC(C)C[C@H](NC(=O)[C@H](CC(C)C)NC(=O)[C@H](CCC(=O)O)NC(=O)[C@]1(C)CCCC=CCCC[C@](C)(NC(=O)[C@H](C)NC(=O)[C@H](C)NC(=O)[C@H](C)NC(=O)CCNC(=O)c2ccc3c(c2)C(=O)OC32c3ccc(O)cc3Oc3cc(O)ccc32)C(=O)N[C@@H](CC(C)C)C(=O)N[C@@H]([C@@H](C)O)C(=O)N[C@@H](CC(C)C)C(=O)N1)C(=O)NCC(N)=O [compound 6] ({5FAM-βAla}-AAA[S5]LTL[S5]ELLG-NH2; staple 4-8) |  | ≥ 38000 nM |  |  | 22% |
